Data reported in US11033572B2, “Molecular adjuvants for enhanced cytosolic delivery of active agents” (Universiteit Gent, priority 2017, dated 2021).

Assays:
Assay type in all cases: cell-based
[1] = test system: H1299_eGFP cells; test: Cell viability following CAD incubation (CellTiter GLO)
Description: (§1) The silencing potential of siPLK1-NGs was established through evaluating the cell viability. Hereto, we applied the CellTiter GLO® assay (Promega, Belgium) according to the manufacturer's guidelines. Before initiating the assay, the culture plates and reconstituted assay buffer were placed at room temperature for 30 minutes. Next, the culture medium was replaced by 250 μL fresh cell medium and an equal volume of assay buffer was added. To induce complete cell lysis, the plates were shaken during 2 minutes and the signal was allowed to stabilize the following 10 minutes. 100 μL from each well was subsequently transferred to an opaque 96-well plate, which was measured with a GloMax® 96 Microplate Luminometer (Promega, Belgium). Three biological replicates were performed and data are expressed as the mean cell viability±SEM.
Please note that we only applied siCTRL-loaded NGs in this set of experiments. With the interest of evaluating the possible effect of our treatment on cell viability, the CellTiter GLO® assay was performed as described above. Again, three biological replicates were performed and data are expressed as the mean±SEM.

[2] = test system: H1299_WT cells; test: Release of NG-delivered labeled oligonucleotides into the cytosol (positive nuclei); conditions: 40 μM, 20 h, after NG transfection; listed as DL
Description: To visualize the FITC-dextran release, a 1 mg/mL dispersion of 10 kDa FITC-dextrans (Sigma-Aldrich, Belgium) in complete cell medium was added during 1 hour at 37° C. in a humidified atmosphere containing 5% CO2. To assess oligonucleotide escape, the NGs were first loaded with 100 nM Alexa Fluor 647-labeled oligonucleotides (21-mer) (Eurogentec, Belgium) according to the procedure described for siRNA complexation. Of note, these oligonucleotides transfer to the nucleus upon release into the cytosol (Rehman et al., ACS Nano, 2013). Following four hours of NG transfection or 1 h incubation with FITC-dextrans, the cells were washed with PBS and received 1.5 mL fresh cell medium with or without 10, 20 or 40 μM DL. After an additional incubation period of 20 hours, the cell medium was removed and nuclei were labeled with Hoechst (Molecular Probes™, Belgium) in cell medium during 15 minutes at 37° C. […]
The samples were imaged using a laser scanning confocal microscope (LSCM, C1si, Nikon) and a 60× oil immersion Plan Apo objective (Nikon, Belgium). […] During data analysis with the ImageJ image processing software (NIH) both the total cell number and amount of cells with a diffuse FITC-dextran labeling or oligonucleotide-positive nuclei were counted. […]

[3] = test system: H1299_eGFP cells; test: Side scatter (cellular granularity) by flow cytometry
Description: For silencing experiments, H1299_eGFP cells were seeded in 24 well plates at a density of 35000 cells/well and were allowed to settle overnight. Subsequently, the cells were transfected and treated with small molecular adjuvants as described previously. Note that for every siEGFP or siPLK1 condition an siCTRL sample was included to account for potential off target effects. SiNG-mediated eGFP silencing was determined by flow cytometry. […] The cells were collected, centrifuged during 5 minutes at 300 g, resuspended in 300 μL flow buffer and kept on ice until analysis. For each sample the forward and side scatter as well as the green fluorescent signal were measured for at least 5000 cells.

[4] = test system: H1299_eGFP cells; test: siPLK1-NG silencing evaluated through cell viability (CellTiter GLO)
Description: as §1
All previous experiments were performed on the eGFP reporter gene. To evaluate whether our approach also works in a therapeutic setting we applied siRNA against Polo Like Kinase 1 (PLK1). […] To evaluate the PLK1 silencing we evaluated the effect on cell viability since both induction of cell cycle arrest or apoptosis would reduce the number of cells present compared to the untreated control.

[5] = test system: H1299_eGFP cells; test: Transfection with Lipofectamine RNAiMAX or DOTAP-DOPE liposomes, with or without desloratadine, eGFP silencing; conditions: 40 μM, 2 h
Description: Lipofectamine® RNAiMAX (Invitrogen, Belgium) was applied as prescribed by the manufacturer. In short, equal volumes of RNAiMAX and siRNA dilutions were mixed and allowed to complex during 5 minutes at room temperature. Transfection occurred in Opti-MEM®. According to the guidelines, 5 pmol siRNA/well was applied to obtain optimal transfection efficiencies. To allow comparison with the siNG transfection methods, the RNAiMAX lipoplexes were additionally further diluted to 0.6 pmol siRNA/well. […] Of note, a single biological replicate was performed with three technical replicates and data are represented as the mean±SEM.
DOTAP (2,3-dioleoyloxy-propyl)-trimethylammonium)—DOPE (1,2-dioleoyl-sn-glycero-3-phosphoethanolamine) liposomes (LPS) were prepared via the lipid film hydration method. […]
For silencing experiments, H1299_eGFP cells were seeded in 24 well plates at a density of 35000 cells/well and were allowed to settle overnight. […] SiNG-mediated eGFP silencing was determined by flow cytometry. […] For each sample the forward and side scatter as well as the green fluorescent signal were measured for at least 5000 cells. The samples were excited with the 488 nm laser line and the signal was detected with the 530/30 filter using the FACSCalibur™ flow cytometer (BD Biosciences, Belgium) and BD CellQuest™ acquisition software.

## Clc1ccc2c(c1)CCc1cccnc1C2=C1CCNCC1 [(3) Desloratadine, Desloratadine]
[1]
  additional cytotoxicity compared to siNGs alone: did not cause any additional cytotoxicity
[1]; human, 20 h, 40 μM
  transfected cells remaining viable: ~60%
[2]
  Oligonucleotide positive nuclei: 30%
[3]; 40 μM, 2 h incubation
  cellular granularity (SSC) at eGFP readout: significant though minor augmentation
[3]; siNG transfection then 40 μM
  increase in SSC signal: 1.8 fold
[4]; 1 nM siPLK1-NG, second 40 μM treatment
  cell viability: ~50%
[4]; 1 nM siPLK1-NG, single 40 μM treatment, 2 h
  viability at 40 µM: ~60%
[4]; 10 nM siPLK1-NG, single 2-hour treatment
  effect on cell viability reduction: maximal effect on cell viability reduction
[5]
  cytosolic siRNA delivery via cationic liposomes: not able to enhance cytosolic siRNA delivery
